For assay [1], the target named is T1, TREK-1^CG* (K2P2.1 (TREK-1) S131C) (Mus musculus, UniProt P97438, S146C).
T1 construct: expressed in transfected cells; host or cells: Xenopus laevis oocytes injected with mRNA
T1 sequence (P97438 1-411 isoform P97438-2 S131C): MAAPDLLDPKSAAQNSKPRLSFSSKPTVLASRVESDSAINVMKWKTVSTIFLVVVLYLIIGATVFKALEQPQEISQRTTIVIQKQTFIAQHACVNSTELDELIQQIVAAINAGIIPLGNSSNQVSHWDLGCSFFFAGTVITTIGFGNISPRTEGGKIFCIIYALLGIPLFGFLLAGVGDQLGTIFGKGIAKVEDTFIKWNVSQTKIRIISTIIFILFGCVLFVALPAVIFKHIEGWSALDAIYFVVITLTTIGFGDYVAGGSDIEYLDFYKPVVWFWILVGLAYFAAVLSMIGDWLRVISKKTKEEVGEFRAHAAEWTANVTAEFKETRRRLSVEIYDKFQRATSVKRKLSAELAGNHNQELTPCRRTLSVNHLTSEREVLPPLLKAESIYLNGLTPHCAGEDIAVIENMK
The experiment in a line: TEVC in Xenopus oocytes. The note with it: for Fold-activation (I activator/I control) / Reversibility of activation on washout: 20 μM, Xenopus oocytes; for Fold-activation (I activator/I control): 0 mV; for TREK-1 GC activity class: Fold-activation at 20 uM in oocytes. It counts as cell-based. The text has this:
(§1) Mouse K2P2.1 (TREK-1) (Genbank accession number: NP_034737.2), mouse K2P10.1 (TREK-2) (NM_001316665.1), mouse K2P4.1 (TRAAK) (NM_008431.3), human K2P4.1 (TRAAK) (NM_033310.2) and mouse K2P18.1(TRESK) (NM_207261.3) were used for this study. Point mutations were introduced by site-directed mutagenesis using custom primers and confirmed by sequencing before use. For studies using Xenopus oocytes, K2P channels were subcloned into a previously reported pGEMHE/pMO vector (46). For expression in HEK293 cells, mouse K2P2.1 (TREK-1) and mutants were expressed from a previously described pIRES2-EGFP vector in HEK293 cells (46,47). K2P2.1 (TREK-1) tandems were constructed by connecting the open reading frames for the individual subunits with a linker encoding the […] (SEQ ID NO: 19) sequence. Tandems used for HEK293 cells included an N-terminal HA tag ([…] (SEQ ID NO: 20)) on the first subunit.
(§2) Xenopus laevis oocytes were harvested according to UCSF IACUC Protocol AN129690 and digested using collagenase (Worthington Biochemical Corporation, #LS004183, 0.8-1.0 mg/mL) in Ca^21-free ND96 (96 mM NaCl, 2 mM KCl, 3.8 mM MgCl2, 5 mM HEPES pH 7.4) immediately post-harvest, as previously reported (31,33). Oocytes were maintained at 18° C. in ND96 (96 mM NaCl, 2 mM KCl, 1.8 mM CaCl2, 2 mM MgCl2, 5 mM HEPES pH 7.4) supplemented with antibiotics (100 units mL^−1 penicillin, 100 μg mL^−1 streptomycin, 50 μg mL^−1 gentimycin) and used for experiments within one week of harvest.
(§3) Defolliculated stage V-VI oocytes were microinjected with 0.5-36 ng mRNA and currents were recorded within 16-48 h hours of injection.
(§4) For recordings, oocytes were impaled with borosilicate recording microelectrodes (0.4-2.0 MΩ resistance) backfilled with 3 M KCl and were subjected to constant perfusion of ND96 at a rate of 3 ml min^−1. Recording solutions containing K2P activators were prepared immediately prior to use from DMSO stocks (20-100 mM), with final DMSO concentrations of 0.1%. Currents were evoked from a −80 mV holding potential followed by a 300 ms ramp from −150 mV to +50 mV. Data were recorded using a GeneClamp 500B amplifier (MDS Analytical Technologies) controlled by pCLAMP8 software (Molecular Devices), and digitized at 1 kHz using Digidata 1332 Å digitizer (MDS Analytical Technologies). For each recording, control solution (ND96) was perfused over a single oocyte until current was stable before switching to solutions containing the test compounds at various concentrations. Representative traces and dose response plots were generated in GraphPad Prism 9.

The target in assay [2] is T2, K2P2.1 (TREK-1) (Mus musculus, UniProt P97438).
T2 construct: expressed in transfected cells; host or cells: Xenopus laevis oocytes injected with mRNA (pGEMHE/pMO vector)
T2 sequence (P97438 1-411 isoform P97438-2): T1 sequence (P97438 1-411 isoform P97438-2 S131C) with C131S
In words: Two-electrode voltage clamp (TEVC) in Xenopus oocytes. The note with it: for TREK-1 fold-activation: 20 uM, oocytes expressing TREK1; for TREK-1 activity class: Fold-activation at 20 uM in oocytes. The format is cell-based.
From the text: as §1, §2, §3, §4
(Two-electrode voltage clamp is typically applied to oocytes expressing channels or transporters.)

Positions count from the first letter of the chain named.

Turning to `CC1=CC(=O)N(c2ccc(C(=O)NCc3ccc(Cl)cc3Cl)cc2)C1=O` [CAT335a], in assay [1], the “Fold-activation (I activator/I control)” value is 7.4±0.7 fold and the “Reversibility of activation on washout” value was “irreversibly activate”. `CC1=C(C)C(=O)N(c2ccc(C(=O)NCc3ccc(Cl)cc3Cl)cc2)C1=O` [CAT335b]: in assay [1], the “Fold-activation (I activator/I control)” value is reported as 4.9±0.6 fold and the “Reversibility of activation on washout” value is on record as “partially reversible with washout”. The “Reversibility of activation after extended incubation” value in assay [1] (1 hour incubation, washout with buffer) is “remained reversible”. Turning to `O=C(NCc1ccc(Cl)cc1Cl)c1ccc(N2C(=O)CCC2=O)cc1` [CAT335c], in assay [1], the “Fold-activation (I activator/I control)” value was 5.0 ± 0.4 fold and the “Reversibility of activation on washout” value was “reversible”. Moreover, the “Fold-activation (I activator/I control)” value in assay [2] (20 μM, currents at 0 mV, Xenopus oocytes) amounted to 2.09 ± 0.14 fold. In assay [2], `C/C=C/C(=O)Nc1ccc(C(=O)NCc2ccc(Cl)cc2Cl)cc1` [Entry 4] had a TREK-1 fold-activation of 1.2 fold. Take `C#CCNC(=O)CC(=C)C(=O)Nc1ccc(C(=O)NCc2ccc(Cl)cc2Cl)cc1` [Entry 5]: in assay [2], the TREK-1 fold-activation was 7.0 fold and the TREK-1 activity class entry was “+++ (>5 fold)”.

Take `C=C(CC(=O)O)C(=O)Nc1ccc(C(=O)NCc2ccc(Cl)cc2Cl)cc1` [Entry 6]: in assay [2], the TREK-1 fold-activation was in the range of 1.7 to 2.5 fold and the TREK-1 activity class result is “+ (1.5-2.5 fold)”. In assay [2], `O=C(/C=C/C(F)(F)F)Nc1ccc(C(=O)NCc2ccc(Cl)cc2Cl)cc1` [Entry 7] registered a TREK-1 fold-activation of 1.0 fold.

`N#CCC(=O)Nc1ccc(C(=O)NCc2ccc(Cl)cc2Cl)cc1` [Entry 8]: in assay [2], the TREK-1 fold-activation is reported as 3.6 fold and the TREK-1 activity class result is on record as “++ (2.5-5 fold)”. In assay [2], `C#CCN(C(=O)C=C)c1ccc(C(=O)NCc2ccc(Cl)cc2Cl)cc1` [Entry 9] came in with a TREK-1 fold-activation of 1.0 fold.

In assay [2], `C=CC(=O)Nc1cccc(C(=O)NCc2ccc(Cl)cc2Cl)c1` [Entry 10] returned a TREK-1 fold-activation of 1.2 fold. Regarding `C=CS(=O)(=O)Nc1ccc(C(=O)NCc2ccc(Cl)cc2Cl)cc1` [Entry 11], the TREK-1 fold-activation in assay [2] amounted to 1.3 fold. In the case of `C#CCNC(=O)CCCC1=CC(=O)N(c2ccc(C(=O)NCc3ccc(Cl)cc3Cl)cc2)C1=O` [Entry 18], the “TREK-1 GC activity class” value in assay [1] was “++ (2.5-5 fold)”. In the case of `CCOC(=O)CCCC1=CC(=O)N(c2ccc(C(=O)NCc3ccc(Cl)cc3Cl)cc2)C1=O` [Entry 19], the “TREK-1 GC activity class” value in assay [1] is “++ (2.5-5 fold)”. `O=C(NCc1ccc(Cl)cc1Cl)c1cccc(CB(O)O)c1` [Entry 23] registered a TREK-1 fold-activation in assay [2] of 1.0 fold. In the case of `O=C(NCc1ccc(Cl)cc1Cl)c1cccc(B(O)O)c1` [Entry 24], in assay [2], the TREK-1 fold-activation is 1.3 fold and the TREK-1 activity class entry is given as “+ (1.5-2.5 fold)”. Regarding `O=C(NCc1ccc(Cl)cc1Cl)c1ccc(CB(O)O)cc1` [Entry 25], in assay [2], the TREK-1 fold-activation is recorded as 1.5 fold and the TREK-1 activity class result is given as “+ (1.5-2.5 fold)”. Take `CC1(C)OB(Cc2ccc(C(=O)NCc3ccc(Cl)cc3Cl)cc2)OC1(C)C` [Entry 26]: in assay [2], the TREK-1 fold-activation is listed as 1.6 fold and the TREK-1 activity class result is recorded as “+ (1.5-2.5 fold)”. For `O=C(NCc1ccc(Cl)cc1Cl)c1ccc(NCC2CO2)cc1` (stereo not drawn) [Entry 27], in that order: 2.5 fold and “++ (2.5-5 fold)”. With `O=C(NCc1ccc(Cl)cc1Cl)c1ccc(NC(=O)C(F)(F)F)cc1` [Entry 28], in assay [2], the TREK-1 fold-activation was found to be 3.3 fold and the TREK-1 activity class entry is recorded as “++ (2.5-5 fold)”. `CN(Cc1ccc(Cl)cc1Cl)C(=O)c1ccc(NS(C)(=O)=O)cc1` [Entry 30] returned a TREK-1 fold-activation in assay [2] of 1.0 fold.

In the case of `CC(NC(=O)c1ccc(NC(N)=O)cc1)c1ccc(Cl)cc1Cl` (stereo not drawn) [Entry 31], the TREK-1 fold-activation in assay [2] is on record as 1.3 fold. Still for that read-out and setting: then `CC(NC(=O)c1ccc(NS(C)(=O)=O)cc1)c1ccc(Cl)cc1Cl` (stereo not drawn) [Entry 32], with 1.2 fold. Regarding `CS(=O)(=O)Nc1cccc(C(=O)NCc2ccc(Cl)cc2Cl)c1` [Entry 33], in assay [2], the TREK-1 fold-activation came out at 2.2 fold and the TREK-1 activity class result is given as “++ (2.5-5 fold)”. Regarding `CC(NC(=O)c1ccc(NC(=O)NC(=O)C(Cl)(Cl)Cl)cc1)c1ccc(Cl)cc1Cl` (stereo not drawn) [Entry 34], the TREK-1 fold-activation in assay [2] is 1.2 fold.

On to `NC(=O)Nc1ccc(C(=O)NCc2ccc(Cl)cc2Cl)cc1` [Entry 35], for which, in assay [2], the TREK-1 fold-activation was 6.4 fold and the TREK-1 activity class result is given as “+++ (>5 fold)”. For `CNS(=O)(=O)c1ccc(C(=O)NCc2ccc(Cl)cc2Cl)cc1` [Entry 36] the same measures were 3 fold and “++ (2.5-5 fold)”.

For the compound `CNS(=O)(=O)c1ccc(C(=O)NCc2ccc(Cl)c(Cl)c2)cc1` [Entry 37], in assay [2], the TREK-1 fold-activation is listed as 1.5 fold and the TREK-1 activity class entry was “+ (1.5-2.5 fold)”. As to `CS(=O)(=O)Nc1ccc(C(=O)NCc2ccc(Cl)c(Cl)c2)cc1` [Entry 38], in assay [2], the TREK-1 fold-activation worked out at 4.8 fold and the TREK-1 activity class result is “+++ (>5 fold)”. For `CS(=O)(=O)Nc1ccc(C(=O)NCc2ccc(Cl)c(F)c2)cc1` [Entry 39], in that order: 1.5 fold and “+ (1.5-2.5 fold)”. The compound `Cc1cc(Cl)cc(Cl)c1CNC(=O)c1ccc(NS(C)(=O)=O)cc1` [Entry 40] showed a TREK-1 fold-activation in assay [2] of 1.1 fold. Consider `CS(=O)(=O)Nc1ccc(C(=O)NCc2ccc(Br)cc2Cl)cc1` [Entry 41], for which, in assay [2], the TREK-1 fold-activation was 3.3 fold and the TREK-1 activity class result is listed as “++ (2.5-5 fold)”. For `CS(=O)(=O)Nc1ncc(C(=O)NCc2ccc(Cl)cc2Cl)cn1` [Entry 42] the same measures were 1.4 fold and “+ (1.5-2.5 fold)”. For `CS(=O)(=O)Nc1ccc2c(c1)OCCN(Cc1ccc(Cl)cc1Cl)C2=O` [Entry 43], in that order: 1.6 fold and “+ (1.5-2.5 fold)”. In assay [2], `CS(=O)(=O)Nc1ccc2c(c1)CCCN(Cc1ccc(Cl)cc1Cl)C2=O` [Entry 44] gave a TREK-1 fold-activation of 1.0 fold. Still for that read-out and setting: then `CS(=O)(=O)Nc1ccc2c(c1)CCN(Cc1ccc(Cl)cc1Cl)C2=O` [Entry 45], with 1.1 fold. With `O=C(COCCOCCNC(=S)Nc1ccc2c(c1)C(=O)OC21c2ccc(O)cc2Oc2cc(O)ccc21)Nc1ccc(C(=O)NCc2ccc(Cl)cc2Cl)cc1` [Entry 46], in assay [2], the TREK-1 fold-activation was found to be 4 fold and the TREK-1 activity class entry is given as “+++ (>5 fold)”. Regarding `O=C(NCc1ccc(Cl)cc1Cl)c1ccc(N2CCS2(=O)=O)cc1` [Entry 47], in assay [1], the “TREK-1 GC activity class” value is “+ (1.5-2.5 fold)”.

These data come from patent publication US20260098008A1, “COVALENT, CHEMOGENETIC ACTIVATORS FOR K2P POTASSIUM CHANNELS AND USES THEREOF” (THE REGENTS OF THE UNIVERSITY OF CALIFORNIA, priority 2022, published 2026).
